# Tested on: U2OS-LacO cells
# Assay: Interaction of LacI foci with spindle microtubules (foci shape)
# Format: cell-based, human
# Details: 2 μM
# Excerpt: We next sought to test the interaction of these foci with spindle microtubules. […] This deformation of the LacI foci could represent microtubules binding the structure to opposite spindle poles. In such a situation, tension across the region would result in a change in the shape of the chromatin. Consistent with microtubule interactions with the foci, the deformed shape of the GFP-CENP-T-ΔC-LacI focus was dependent on microtubules, as nocodazole treatment relaxed this to a circular morphology, with an average length to width ration of 1.15 (FIG. 6B). See also FIG. 8. Deformation of the GFP-CENP-T-ΔC-LacI focus was exacerbated by treatment with the Aurora B inhibitor ZM447439, which has been proposed to regulate both kinetochore-microtubule attachments (Cheeseman and Desai, 2008) and chromatinstructure (Lipp et al., 2007).
# Immunofluorescence in human cells was conducted as described previously (Kline et al., 2006). […]
structure (smiles),measurement,value
COc1cc2c(Nc3ccc(NC(=O)c4ccccc4)cc3)ncnc2cc1OCCCN1CCOCC1 [ZM447439],effect on deformation of the GFP-CENP-T-ΔC-LacI focus,exacerbated

# From patent US20130288364A1, “ENGINEERED KINETOCHORES AND USES THEREOF” (Whitehead Institute for Biomedical Research, priority 2010, published 2013)
